Our source for the DC50 and Dmax values is patent publication US12091426B2, “Bifunctional degraders of hematopoietic progenitor kinase and therapeutic uses thereof” (Nurix Therapeutics, Inc., priority 2021, dated 2024).

A value given as a limit tells only on which side of the number the result lay.

This experiment has as its target T1, HPK1 (Homo sapiens, UniProt Q92918).
T1 construct: A HiBiT tag was introduced by CRISPR on the N terminus of HPK1 in Jurkat cells; host or cells: Jurkat cells (ATCC TIB-152), monoclonal line with CRISPR knock-in of HiBiT at the endogenous HPK1 locus
As to the kind of experiment: HPK1 Cellular HiBit Degradation Assay. The class given is cell-based. Conditions: HiBiT HPK1 Jurkat cells, 24 hrs; for DC50: concentration at which 50% of HPK1 was remaining, read-out: DC50 Category; for Dmax: Jurkat, maximum degradation vs DMSO vehicle control, read-out: Dmax Category. The method, boiled down:
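Degraders are dosed in an 11-point series (10 uM to 0.1 nM final) onto Jurkat cells carrying an N-terminal HiBiT tag on endogenous HPK1. After 24 hrs at 37° C, lysis-based HiBiT luminescence quantifies remaining HPK1 relative to vehicle, and curve fitting gives DC50 and Dmax.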
For orientation: With HiBiT, luminescence reflects the tagged protein that the partner subunit can reach.

T1 sequence (Q92918 whole entry): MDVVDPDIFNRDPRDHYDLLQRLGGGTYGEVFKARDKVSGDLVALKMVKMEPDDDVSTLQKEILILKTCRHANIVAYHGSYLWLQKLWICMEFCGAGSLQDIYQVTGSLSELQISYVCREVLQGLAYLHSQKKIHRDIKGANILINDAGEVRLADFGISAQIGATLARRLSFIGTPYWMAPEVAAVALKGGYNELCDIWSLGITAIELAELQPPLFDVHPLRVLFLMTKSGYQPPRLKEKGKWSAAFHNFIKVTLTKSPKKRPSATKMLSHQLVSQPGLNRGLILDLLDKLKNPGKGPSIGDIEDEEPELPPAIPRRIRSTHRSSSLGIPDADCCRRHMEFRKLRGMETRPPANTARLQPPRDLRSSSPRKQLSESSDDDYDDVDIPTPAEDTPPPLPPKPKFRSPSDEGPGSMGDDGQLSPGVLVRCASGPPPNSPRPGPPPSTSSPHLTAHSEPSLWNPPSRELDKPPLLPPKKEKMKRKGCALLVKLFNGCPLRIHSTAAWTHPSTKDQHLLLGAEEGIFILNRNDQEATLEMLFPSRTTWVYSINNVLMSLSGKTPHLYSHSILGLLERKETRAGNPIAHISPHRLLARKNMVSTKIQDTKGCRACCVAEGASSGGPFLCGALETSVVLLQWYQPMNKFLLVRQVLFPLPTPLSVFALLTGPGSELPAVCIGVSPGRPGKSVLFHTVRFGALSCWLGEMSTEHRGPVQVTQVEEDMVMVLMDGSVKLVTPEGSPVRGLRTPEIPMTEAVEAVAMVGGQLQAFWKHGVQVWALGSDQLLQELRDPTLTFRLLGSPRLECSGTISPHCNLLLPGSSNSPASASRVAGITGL

On to `CC(C)n1cnc2cc(-c3ccc4c(c3)N([C@H]3C[C@@H](N5CCCCC5)C3)C(=O)C43CCN(C(=O)C4CCN(C(=O)[C@H]5CC[C@H](Nc6ccc(C7CCC(=O)NC7=O)cc6)CC5)CC4)CC3)nc(Nc3ccncc3F)c21` (mixture of isomers) [Example 55, (3RS)-3-(4-{[(1R,4R)-4-{4-[(6-{4-[(3-Fluoropyridin-4-yl)amino]-3-(propan-2-yl)-3H-imidazo[4,5-c]pyridin-6-yl}-2-oxo-1-[(1S,3S)-3-(piperidin-1-yl)cyclobutyl]-1,2-dihydrospiro[indole-3,4′-piperidin]-1′-yl)carbonyl]piperidine-1-carbonyl}cyclohexyl]amino}phenyl)piperidine-2,6-dione], for which the half-maximal degradation concentration (DC50) – broadly, the concentration at which degradation of the target reaches its halfway point – was in the range of 100 to 500 nM and the greatest degradation seen (Dmax) (commonly the largest share of the target that was removed) was in the range of 50 to 70%.

As for `CC(C)n1cnc2cc(-c3ccc4c(c3)N([C@H]3C[C@@H](N5CCCCC5)C3)C(=O)C43CCN(C(=O)C4CCN(C(=O)[C@H]5CC[C@H](Nc6cccc7c6C(=O)N(C6CCC(=O)NC6=O)C7=O)CC5)CC4)CC3)nc(NC3CC3)c21` (mixture of isomers) [Example 56, 2-[(3RS)-2,6-dioxopiperidin-3-yl]-4-{[(1R,4R)-4-[4-({6-[4-(cyclopropylamino)-3-(propan-2-yl)-3H-imidazo[4,5-c]pyridin-6-yl]-2-oxo-1-[(1S,3S)-3-(piperidin-1-yl)cyclobutyl]-1,2-dihydrospiro[indole-3,4′-piperidin]-1′-yl}carbonyl)piperidine-1-carbonyl]cyclohexyl]amino}-2,3-dihydro-1H-isoindole-1,3-dione], the half-maximal degradation concentration (DC50) was 500 to 1000 nM and the Dmax lay in the range of 50 to 70%.

With `CC(C)n1cnc2cc(-c3ccc4c(c3)N([C@H]3C[C@@H](N5CCCCC5)C3)C(=O)C43CCN(C(=O)C4CCN(C(=O)[C@H]5CC[C@H](Nc6cccc7c6C(=O)N(C6CCC(=O)NC6=O)C7=O)CC5)CC4)CC3)nc(Nc3ccccc3F)c21` (mixture of isomers) [Example 57, 2-[(3RS)-2,6-dioxopiperidin-3-yl]-4-{[(1R,4R)-4-{4-[(6-{4-[(2-fluorophenyl)amino]-3-(propan-2-yl)-3H-imidazo[4,5-c]pyridin-6-yl}-2-oxo-1-[(1S,3S)-3-(piperidin-1-yl)cyclobutyl]-1,2-dihydrospiro[indole-3,4′-piperidin]-1′-yl)carbonyl]piperidine-1-carbonyl}cyclohexyl]amino}-2,3-dihydro-1H-isoindole-1,3-dione], the DC50 lay in the range of 100 to 500 nM and the Dmax fell in the range of 70 to 85%.

For the molecule `CC(C)n1cnc2cc(-c3ccc4c(c3)N([C@H]3C[C@@H](N5CCCCC5)C3)C(=O)C43CCN(C(=O)C4CCN(C(=O)[C@H]5CC[C@H](Nc6cncc(C7CCC(=O)NC7=O)c6)CC5)CC4)CC3)nc(Nc3ccccc3F)c21` (mixture of isomers) [Example 58, (3RS)-3-(5-{[(1R,4R)-4-{4-[(6-{4-[(2-fluorophenyl)amino]-3-(propan-2-yl)-3H-imidazo[4,5-c]pyridin-6-yl}-2-oxo-1-[(1S,3S)-3-(piperidin-1-yl)cyclobutyl]-1,2-dihydrospiro[indole-3,4′-piperidin]-1′-yl)carbonyl]piperidine-1-carbonyl}cyclohexyl]amino}pyridin-3-yl)piperidine-2,6-dione], the DC50 was in the range of 100 to 500 nM and the Dmax is 50 to 70%.

`CC(C)n1cnc2cc(-c3ccc4c(c3)N([C@H]3C[C@@H](N5CCCCC5)C3)C(=O)C43CCN(C(=O)C4CCN(C(=O)[C@H]5CC[C@H](Oc6ccc(C7CCC(=O)NC7=O)cc6)CC5)CC4)CC3)nc(NC3CC3)c21` (mixture of isomers) [Example 59, (3RS)-3-(4-{[(1R,4R)-4-[4-({6-[4-(cyclopropylamino)-3-(propan-2-yl)-3H-imidazo[4,5-c]pyridin-6-yl]-2-oxo-1-[(1S,3S)-3-(piperidin-1-yl)cyclobutyl]-1,2-dihydrospiro[indole-3,4′-piperidin]-1′-yl}carbonyl)piperidine-1-carbonyl]cyclohexyl]oxy}phenyl)piperidine-2,6-dione]: the DC50 is below 100 nM and the Dmax was in the range of 50 to 70%.

With `CC(C)n1cnc2cc(-c3ccc4c(c3)N([C@H]3C[C@@H](N5CCCCC5)C3)C(=O)C43CCN(C(=O)C4CCN(C(=O)[C@H]5CC[C@H](Oc6ccc(C7CCC(=O)NC7=O)cc6)CC5)CC4)CC3)nc(Nc3ccccc3F)c21` (mixture of isomers) [Example 60, (3RS)-3-(4-{[(1R,4R)-4-{4-[(6-{4-[(2-fluorophenyl)amino]-3-(propan-2-yl)-3H-imidazo[4,5-c]pyridin-6-yl}-2-oxo-1-[(1S,3S)-3-(piperidin-1-yl)cyclobutyl]-1,2-dihydrospiro[indole-3,4′-piperidin]-1′-yl)carbonyl]piperidine-1-carbonyl}cyclohexyl]oxy}phenyl)piperidine-2,6-dione], the DC50 is below 100 nM and the Dmax lay in the range of 70 to 85%.

With `CC(C)n1cnc2cc(-c3ccc4c(c3)N([C@H]3C[C@@H](N5CCCCC5)C3)C(=O)C43CCN(C(=O)C4CCN(C(=O)[C@H]5CC[C@H](Oc6ccc(C7CCC(=O)NC7=O)cc6)CC5)CC4)CC3)nc(Nc3ccncc3F)c21` (mixture of isomers) [Example 61, (3RS)-3-(4-{[(1R,4R)-4-{4-[(6-{4-[(3-fluoropyridin-4-yl)amino]-3-(propan-2-yl)-3H-imidazo[4,5-c]pyridin-6-yl}-2-oxo-1-[(1S,3S)-3-(piperidin-1-yl)cyclobutyl]-1,2-dihydrospiro[indole-3,4′-piperidin]-1′-yl)carbonyl]piperidine-1-carbonyl}cyclohexyl]oxy}phenyl)piperidine-2,6-dione], the 50% degradation concentration (DC50) was below 100 nM and the Dmax was in the range of 50 to 70%.

Take `CC(C)n1cnc2cc(-c3ccc4c(c3)N([C@H]3C[C@@H](N5CCCCC5)C3)C(=O)C43CCN(C(=O)C4CCN(C(=O)[C@H]5CC[C@H](Oc6ccc(C7CCC(=O)NC7=O)cn6)CC5)CC4)CC3)nc(Nc3ccccc3F)c21` (mixture of isomers) [Example 62, (3RS)-3-(6-{[(1R,4R)-4-{4-[(6-{4-[(2-fluorophenyl)amino]-3-(propan-2-yl)-3H-imidazo[4,5-c]pyridin-6-yl}-2-oxo-1-[(1S,3S)-3-(piperidin-1-yl)cyclobutyl]-1,2-dihydrospiro[indole-3,4′-piperidin]-1′-yl)carbonyl]piperidine-1-carbonyl}cyclohexyl]oxy}pyridin-3-yl)piperidine-2,6-dione]: the DC50 was in the range of 100 to 500 nM and the greatest degradation seen (Dmax) fell in the range of 50 to 70%.

As for `CC(C)n1cnc2cc(-c3ccc4c(c3)N([C@H]3C[C@@H](N5CCCCC5)C3)C(=O)C43CCN(C(=O)C4CCN(C(=O)[C@H]5CC[C@H](Cn6cc7cc(C8CCC(=O)NC8=O)ccc7n6)CC5)CC4)CC3)nc(Nc3ccccc3F)c21` (mixture of isomers) [Example 63, (3RS)-3-(2-{[(1R,4R)-4-{4-[(6-{4-[(2-fluorophenyl)amino]-3-(propan-2-yl)-3H-imidazo[4,5-c]pyridin-6-yl}-2-oxo-1-[(1S,3S)-3-(piperidin-1-yl)cyclobutyl]-1,2-dihydrospiro[indole-3,4′-piperidin]-1′-yl)carbonyl]piperidine-1-carbonyl}cyclohexyl]methyl}-2H-indazol-5-yl)piperidine-2,6-dione], the DC50 was below 100 nM and the Dmax is 50 to 70%.

Turning to `CC(C)n1cnc2cc(-c3ccc4c(c3)N([C@H]3C[C@@H](N5CCCCC5)C3)C(=O)C43CCN(C(=O)C4CCN(C(=O)[C@H]5CC[C@H](Cn6ncc7cc(C8CCC(=O)NC8=O)ccc76)CC5)CC4)CC3)nc(Nc3ccccc3F)c21` (mixture of isomers) [Example 64, (3RS)-3-(1-{[(1R,4R)-4-{4-[(6-{4-[(2-fluorophenyl)amino]-3-(propan-2-yl)-3H-imidazo[4,5-c]pyridin-6-yl}-2-oxo-1-[(1S,3S)-3-(piperidin-1-yl)cyclobutyl]-1,2-dihydrospiro[indole-3,4′-piperidin]-1′-yl)carbonyl]piperidine-1-carbonyl}cyclohexyl]methyl}-1H-indazol-5-yl)piperidine-2,6-dione], the DC50 is below 100 nM and the Dmax lay in the range of 70 to 85%.

For the molecule `CC(C)n1cnc2cc(-c3ccc4c(c3)N([C@H]3C[C@@H](N5CCCCC5)C3)C(=O)C43CCN(C(=O)C4CCN(C(=O)[C@H]5CCN(c6ccc(C7CCC(=O)NC7=O)cn6)C5)CC4)CC3)nc(Nc3ccccc3F)c21` (mixture of isomers) [Example 65, (3RS)-3-{6-[(3S)-3-{4-[(6-{4-[(2-fluorophenyl)amino]-3-(propan-2-yl)-3H-imidazo[4,5-c]pyridin-6-yl}-2-oxo-1-[(1S,3S)-3-(piperidin-1-yl)cyclobutyl]-1,2-dihydrospiro[indole-3,4′-piperidin]-1′-yl)carbonyl]piperidine-1-carbonyl}pyrrolidin-1-yl]pyridin-3-yl}piperidine-2,6-dione], the DC50 was 100 to 500 nM and the Dmax is 70 to 85%.

With `CC(C)n1cnc2cc(-c3ccc4c(c3)N([C@H]3C[C@@H](N5CCCCC5)C3)C(=O)C43CCN(C(=O)C4CCN(C(=O)C5CCN(c6ccc(C7CCC(=O)NC7=O)cc6)CC5)CC4)CC3)nc(Nc3ccccc3F)c21` (mixture of isomers) [Example 67, (3RS)-3-[4-(4-{4-[(6-{4-[(2-fluorophenyl)amino]-3-(propan-2-yl)-3H-imidazo[4,5-c]pyridin-6-yl}-2-oxo-1-[(1S,3S)-3-(piperidin-1-yl)cyclobutyl]-1,2-dihydrospiro[indole-3,4′-piperidin]-1′-yl)carbonyl]piperidine-1-carbonyl}piperidin-1-yl)phenyl]piperidine-2,6-dione], the 50% degradation concentration (DC50) was below 100 nM and the Dmax lay in the range of 70 to 85%.
